From patent US11466003B2, “Nitrogenous heterocyclic aromatic compound, preparation method therefor, pharmaceutical composition thereof, and application thereof” (SHANGHAI YINGLI PHARMACEUTICAL CO., LTD, priority 2016, dated 2022)

Molecular target: ALK5 (Homo sapiens (Human), UniProt P36897)
Test: Evaluation of IC50 of inhibitory activity toward ALK5 enzyme (ADP-Glo kinase assay)
Assay type: biochemical
Conditions: 25 nM ALK5, 0.1 mg/mL peptide TGFbR1, 7 μM ATP, 30° C. 1 hour, ADP-Glo luminescence
Method: 5. […] The value of the luminescence reading was converted to % inhibition by formula (% inhibition=(max−sample RLU)/(max−min)×100, wherein, “min” refers to control fluorescence reading of reaction of no enzyme; “max” refers to the fluorescence reading of the sample with DMSO added as a control. The data was imported into MS Excel and curve fitting was performed using GraphPad Prism. IC50 values was calculated.

ALK5, sequence (P36897 34-503, species assumed): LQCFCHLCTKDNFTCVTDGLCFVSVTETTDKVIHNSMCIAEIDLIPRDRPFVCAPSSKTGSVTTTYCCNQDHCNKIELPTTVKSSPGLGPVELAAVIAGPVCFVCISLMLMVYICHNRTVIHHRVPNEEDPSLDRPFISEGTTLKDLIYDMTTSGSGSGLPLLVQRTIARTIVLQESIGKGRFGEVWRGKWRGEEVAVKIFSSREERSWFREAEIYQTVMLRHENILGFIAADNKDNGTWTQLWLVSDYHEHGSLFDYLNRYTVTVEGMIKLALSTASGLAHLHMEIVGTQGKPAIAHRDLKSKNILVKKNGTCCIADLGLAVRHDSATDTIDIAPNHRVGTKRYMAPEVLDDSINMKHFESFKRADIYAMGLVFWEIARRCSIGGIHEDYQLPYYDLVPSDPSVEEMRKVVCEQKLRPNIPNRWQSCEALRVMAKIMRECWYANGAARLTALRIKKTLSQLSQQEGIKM

IC50 [nM] | Structure (SMILES)
192 | Cc1cccc(-c2ccccc2-c2ccc3ncc(C(=O)O)n3c2)n1 [Compound 1]
16.5 | Cc1cccc(-c2ccccc2-c2ccc3ncc(C(N)=O)n3c2)n1 [Compound 2]
5700 | Cc1cccc(-c2ccccc2-c2ccc3ncc(CN)n3c2)n1 [Compound 4]
82 | Cc1cccc(-c2c(F)cccc2-c2ccc3ncc(C(N)=O)n3c2)n1 [Compound 6]
85 | NC(=O)c1cnc2ccc(-c3ccccc3-c3ccccn3)cn12 [Compound 7]
45 | Cc1cccc(-c2cccc(F)c2-c2ccc3ncc(C(N)=O)n3c2)n1 [Compound 8]
16 | Cc1cccc(-c2ccc(F)cc2-c2ccc3ncc(C(N)=O)n3c2)n1 [Compound 9]
35 | Cc1cccc(-c2cc(F)ccc2-c2ccc3ncc(C(N)=O)n3c2)n1 [Compound 10]
145 | Cc1cccc(-c2ccccc2-c2ccc3nccn3c2)n1 [Compound 11]
45 | Cc1cccc(-c2ccccc2-c2ccc3ncc(C(=O)NO)n3c2)n1 [Compound 12]
337 | Cc1cccc(-c2ccccc2-c2ccc3ncnc(N)c3c2)n1 [Compound 13]
53 | Cc1cccc(-c2ccccc2-c2ccn3ncc(C(N)=O)c3c2)n1 [Compound 14]
1300 | Cc1cccc(-c2ccccc2-c2ccc3[nH]ncc3c2)n1 [Compound 16]
4740 | Cc1cccc(-c2ccccc2-c2ccc3nnc(C(N)=O)n3c2)n1 [Compound 18]
110 | Cc1cccc(-c2ccncc2-c2ccc3ncc(C(N)=O)n3c2)n1 [Compound 23]
38 | Cc1csc(-c2ccccc2-c2ccc3ncc(C(N)=O)n3c2)n1 [Compound 26]
38 | COc1ccc(-c2cccc(C)n2)c(-c2ccc3ncc(C(N)=O)n3c2)c1 [Compound 29]
2930 | Cc1cccc(-c2ccccc2-c2ccc3nc(C)c(C(N)=O)n3c2)n1 [Compound 30]
126 | Cc1cccc(-c2ccccc2-c2ccc3ncc(C)n3c2)n1 [Compound 31]
339 | Cc1ccn(-c2ccccc2-c2ccc3ncc(C(N)=O)n3c2)n1 [Compound 32]
221 | Cc1cccc(-c2ccccc2-c2ccc3occ(C(N)=O)c3c2)n1 [Compound 33]

IC50 [nM] | Structure (SMILES)
579 | Cc1cccc(-c2ccccc2-c2ccc3ncc(C(=N)N)n3c2)n1 [Compound 35]
63 | Cc1cccc(-c2ccc(C(N)=O)cc2-c2ccc3ncc(C(N)=O)n3c2)n1 [Compound 37]
18 | Cc1nc(-c2ccccc2-c2ccc3ncc(C(N)=O)n3c2)ccc1F [Compound 38]
196 | Cc1nc(-c2ccccc2-c2ccc3ncc(C(N)=O)n3c2)ccc1Cl [Compound 39]
12 | Cc1ccc(F)c(-c2ccccc2-c2ccc3ncc(C(N)=O)n3c2)n1 [Compound 40]
144 | Cc1ccnc(-c2ccccc2-c2ccc3ncc(C(N)=O)n3c2)n1 [Compound 42]
322 | Cc1cncc(-c2ccccc2-c2ccc3ncc(C(N)=O)n3c2)n1 [Compound 44]
15 | NC(=O)c1cnc2ccc(-c3ccccc3-c3cccc(C(F)(F)F)n3)cn12 [Compound 45]
126 | Cn1ccc(-c2ccccc2-c2ccc3ncc(C(N)=O)n3c2)n1 [Compound 47]
237 | Cc1nccc(-c2ccccc2-c2ccc3ncc(C(N)=O)n3c2)n1 [Compound 48]
102 | Cc1cccc(-c2ccccc2-c2ccc3nc[nH]c(=O)c3c2)n1 [Compound 49]
415 | Cc1cccc(-c2ccccc2-c2ccc3ncc(C(N)=O)nc3c2)n1 [Compound 52]
6.9 | Cc1cccc(-c2cscc2-c2ccc3ncc(C(N)=O)n3c2)n1 [Compound 53]
98 | Cc1cccc(-c2ccccc2-c2ccc3ncc(C(N)=O)n3n2)n1 [Compound 54]
13 | Cc1cccc(-c2ccc(OCc3ccccc3F)cc2-c2ccc3ncc(C(N)=O)n3c2)n1 [Compound 55]
56 | Cc1cccc(-c2cc3nccn3cc2-c2ccc3ncc(C(N)=O)n3c2)n1 [Compound 57]
46 | Cc1cccc(-c2ccccc2-c2ccc3ncc(C(=O)NC4CC4)n3c2)n1 [Compound 58]
39 | Cc1cccc(-c2ccc(Oc3ccccc3F)cc2-c2ccc3ncc(C(N)=O)n3c2)n1 [Compound 59]
64 | Cc1cccc(-c2ccccc2-c2ccc3ncc(C(=O)NCCN4CCOCC4)n3c2)n1 [Compound 60]
114 | Cc1cccc(-c2ccccc2-c2ccc3ncc(C(=O)NC4CCOCC4)n3c2)n1 [Compound 61]
74 | Cc1coc(-c2ccccc2-c2ccc3ncc(C(N)=O)n3c2)n1 [Compound 63]

Structure (SMILES) | IC50 [nM]
CNC(=O)c1cnc2ccc(-c3ccccc3-c3cccc(C)n3)cn12 [Compound 3] | 27
Cc1cccc(-c2ccccc2-c2ccc3ncc(C(=O)N(C)C)n3c2)n1 [Compound 5] | 243
Cc1cccc(-c2ccccc2-c2ccc3ncnn3c2)n1 [Compound 15] | 360
Cc1cccc(-c2ccccc2-c2ccc3nncn3c2)n1 [Compound 17] | > 10000
Cc1cccc(-c2ccccc2-c2ccc3c(cnn3C(N)=O)c2)n1 [Compound 19] | > 10000
Cc1cccc(-c2ccccc2-c2ccc3ncc(C#N)n3c2)n1 [Compound 20] | 535
Cc1cccc(-c2ccccc2-c2ccc3ncc(-c4nnn[nH]4)n3c2)n1 [Compound 21] | 72
Cc1cccc(-c2ccccc2-c2ccc3ncc(N)n3c2)n1 [Compound 22] | 560
COc1cccc(-c2ccccc2-c2ccc3ncc(C(N)=O)n3c2)n1 [Compound 24] | 45
Cc1cccc(-c2ccc(C#N)cc2-c2ccc3ncc(C(N)=O)n3c2)n1 [Compound 25] | 73
Cc1nc(-c2ccccc2-c2ccc3ncc(C(N)=O)n3c2)cs1 [Compound 27] | 193
Cc1cccc(-c2ccccc2-c2ccc3ncc(NC=O)n3c2)n1 [Compound 28] | 674
Cc1cccc(-c2ccccc2-c2ccc3ncc(S(N)(=O)=O)n3c2)n1 [Compound 34] | 581
Cc1cccc(-c2ccccc2-c2ccnc3ccc(C(N)=O)cc23)n1 [Compound C-1, reference compound] | > 10000
